Laboratory results published in PubChem BioAssay (NCI).
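96-well plates; 48 h exposure; 5 concentrations. Endpoints by linear interpolation between flanking doses. Not reached: highest tested concentration assigned. GI50 is the concentration that inhibits growth by half. Definition used: TGI = concentration required for complete inhibition of growth.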

Experiments:
Experiment in all cases: NCI-60 cell line screen, 48 h
[1] = system: A549 NSCLC
[2] = system: IGROV1 ovarian
[3] = system: MDA-MB-231 breast
[4] = system: UACC-62 melanoma
[5] = system: KM12 colon
[6] = system: NCI-H522 lung
[7] = system: CCRF-CEM leukemia
[8] = system: SF-268 CNS
[9] = system: HL-60(TB) leukemia
[10] = system: PC-3 prostate
[11] = system: UACC-257 melanoma
[12] = system: SK-OV-3 ovarian
[13] = system: NCI-H226 lung
[14] = system: HCC-2998 colon
[15] = system: NCI/ADR-RES ovarian
[16] = system: SN12C renal
[17] = system: A498 renal
[18] = system: COLO 205 colon
[19] = system: SK-MEL-5 melanoma
[20] = system: NCI-H23 lung
[21] = system: SF-539 CNS
[22] = system: CAKI-1 renal
[23] = system: HCT-15 colon
[24] = system: UO-31 renal
[25] = system: MDA-MB-435
[26] = system: SK-MEL-28 melanoma
[27] = system: NCI-H460 lung
[28] = system: ACHN renal
[29] = system: 786-0 renal
[30] = system: LOX IMVI melanoma
[31] = system: K-562 leukemia
[32] = system: OVCAR-8 ovarian
[33] = system: HS 578T breast
[34] = system: TK-10 renal
[35] = system: M14 melanoma
[36] = system: SW-620 colon
[37] = system: BT-549 breast
[38] = system: SNB-19 CNS
[39] = system: MOLT-4 leukemia
[40] = system: OVCAR-4 ovarian
[41] = system: T-47D breast
[42] = system: U251 CNS
[43] = system: SF-295 CNS
[44] = system: HOP-92 NSCLC
[45] = system: SK-MEL-2 melanoma
[46] = system: MALME-3M melanoma
[47] = system: HCT-116 colon
[48] = system: HOP-62 NSCLC
[49] = system: DU-145 prostate
[50] = system: MCF7 breast
[51] = system: EKVX NSCLC
[52] = system: RXF 393 renal
[53] = system: OVCAR-5 ovarian
[54] = system: OVCAR-3 ovarian
[55] = system: HT29 colon
[56] = system: RPMI-8226 leukemia

Q: What does the source list for `CCOc1cc2ncc(C#N)c(Nc3ccc(F)c(Cl)c3)c2cc1NC(=O)CC1CCSS1` (configuration not stated)?
A: GI50 [1]: 616 nM; TGI [1]: 1160 nM; GI50 [2]: 392 nM; TGI [2]: 1630 nM; GI50 [3]: 833 nM; TGI [3]: 2000 nM; GI50 [4]: 1970 nM; TGI [4]: 7280 nM; GI50 [5]: 563 nM; TGI [5]: 1130 nM; GI50 [6]: 786 nM; TGI [6]: 4700 nM; GI50 [7]: 792 nM; TGI [7]: 2060 nM; GI50 [8]: 740 nM; TGI [8]: 2230 nM; GI50 [9]: 930 nM; TGI [9]: 4000 nM; GI50 [10]: 629 nM; TGI [10]: 1210 nM; GI50 [11]: 1960 nM; TGI [11]: 6920 nM; GI50 [12]: 509 nM; TGI [12]: 990 nM; GI50 [13]: 2110 nM; TGI [13]: 7400 nM; GI50 [14]: 569 nM; TGI [14]: 1100 nM; GI50 [15]: 751 nM; TGI [15]: 2040 nM; GI50 [16]: 880 nM; TGI [16]: 2500 nM; GI50 [17]: 3050 nM; TGI [17]: 11400 nM; GI50 [18]: 982 nM; TGI [18]: 3390 nM; GI50 [19]: 3240 nM; TGI [19]: 7230 nM; GI50 [20]: 1120 nM; TGI [20]: 4550 nM; GI50 [21]: 5000 nM; TGI [21]: 17400 nM; GI50 [22]: 979 nM; TGI [22]: 4590 nM; GI50 [23]: 649 nM; TGI [23]: 1700 nM; GI50 [24]: 395 nM; TGI [24]: 955 nM; GI50 [25]: 597 nM; TGI [25]: 1230 nM; GI50 [26]: 659 nM; TGI [26]: 1530 nM; GI50 [27]: 676 nM; TGI [27]: 1410 nM; GI50 [28]: 429 nM; TGI [28]: 1150 nM; GI50 [29]: 1840 nM; TGI [29]: 12900 nM; GI50 [30]: 579 nM; TGI [30]: 1170 nM; GI50 [31]: 881 nM; TGI [31]: 2290 nM; GI50 [32]: 809 nM; TGI [32]: 1920 nM; GI50 [33]: 1390 nM; TGI [33]: 11700 nM; GI50 [34]: 556 nM; TGI [34]: 1480 nM; GI50 [35]: 572 nM; TGI [35]: 1330 nM; GI50 [36]: 1040 nM; TGI [36]: 3570 nM; GI50 [37]: 1500 nM; TGI [37]: 7460 nM; GI50 [38]: 1980 nM; TGI [38]: 12300 nM; GI50 [39]: 748 nM; TGI [39]: 1890 nM; GI50 [40]: 663 nM; TGI [40]: 2350 nM; GI50 [41]: 1380 nM; TGI [41]: 6920 nM; GI50 [42]: 1100 nM; TGI [42]: 3460 nM; GI50 [43]: 1650 nM; TGI [43]: 6670 nM; GI50 [44]: 3240 nM; TGI [44]: 13700 nM; GI50 [45]: 697 nM; TGI [45]: 2000 nM; GI50 [46]: 1640 nM; TGI [46]: 6410 nM; GI50 [47]: 630 nM; TGI [47]: 1270 nM; GI50 [48]: 533 nM; TGI [48]: 1160 nM; GI50 [49]: 580 nM; TGI [49]: 1280 nM; GI50 [50]: 694 nM; TGI [50]: 1900 nM; GI50 [51]: 476 nM; TGI [51]: 1930 nM; GI50 [52]: 1130 nM; TGI [52]: 3970 nM; GI50 [53]: 2100 nM; TGI [53]: 13500 nM; GI50 [54]: 717 nM; TGI [54]: 2080 nM; GI50 [55]: 603 nM; TGI [55]: 1200 nM; GI50 [56]: 1640 nM; TGI [56]: 33300 nM
